Several values for one entry are separate records, joined by “and”; a condition that tells them apart may be missing. Equal entries are not always repeated.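 A five-concentration, 48-hour dose response in 96-well plates underlies each endpoint, interpolated linearly between surrounding concentrations. At the GI50, growth is halved. TGI marks complete inhibition of growth.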
Key:
Test in all cases: NCI tumour cell line growth inhibition, 48 h
NCI/ADR-RES ovarian = test system: NCI/ADR-RES ovarian
M14 melanoma = test system: M14 melanoma
EKVX NSCLC = test system: EKVX NSCLC
SF-295 CNS = test system: SF-295 CNS
NCI-H522 lung = test system: NCI-H522 lung
HT29 colon = test system: HT29 colon
SF-539 CNS = test system: SF-539 CNS
T-47D breast = test system: T-47D breast
CAKI-1 renal = test system: CAKI-1 renal
SNB-19 CNS = test system: SNB-19 CNS

SMILES	GI50 (NCI/ADR-RES ovarian) [µM]	TGI (NCI/ADR-RES ovarian)	GI50 (M14 melanoma) [µM]	TGI (M14 melanoma)	GI50 (EKVX NSCLC) [µM]	TGI (EKVX NSCLC)	GI50 (SF-295 CNS) [µM]	TGI (SF-295 CNS)	GI50 (NCI-H522 lung) [µM]	TGI (NCI-H522 lung)	GI50 (HT29 colon) [µM]	TGI (HT29 colon)	GI50 (SF-539 CNS) [µM]	TGI (SF-539 CNS)	GI50 (T-47D breast) [µM]	TGI (T-47D breast)	GI50 (CAKI-1 renal) [µM]	TGI (CAKI-1 renal)	GI50 (SNB-19 CNS) [µM]	TGI (SNB-19 CNS)
Cc1ccc(-c2nc([P+](c3ccccc3)(c3ccccc3)c3ccccc3)c(N3CCOCC3)o2)cc1	21.9	> 100 µM	0.543	10.4 µM	1.08	9.99 µM	1.12	4.35 µM	0.371	7.39 µM	0.357	11 µM	0.787	10.1 µM	0.23	1.83 µM	5.58	17.1 µM	0.333	4.91 µM
CCCCCCCCCCCCOC1C(C(COC2OC(C(O)CO)C3OC(C)(C)OC23)OC(=O)Nc2ccccc2)OC2OC(C)(C)OC21 (centres undefined)	6.04	18.4 µM	5.12	17 µM	9.94	22.2 µM	5.47	17.7 µM	9.89	29.2 µM	2.11	4.68 µM	9.14	22.3 µM	5.02	16.6 µM	12	25.9 µM	7.35	20.3 µM
N=C(N)SCc1ccc(Cl)c2ccccc12 (tested in a mixture with another compound)		48.1 µM and 55.2 µM		23.8 µM and 26.5 µM		24.5 µM and 27.5 µM		24.9 µM and 23.7 µM		18.7 µM and 23.9 µM		24.2 µM and 26.4 µM		23.1 µM and 20.4 µM		18.3 µM and 21.7 µM		19.2 µM and 24.4 µM		28.4 µM and 31.6 µM
O=C1[C@H](Cc2ccc(O)cc2)N2C(=O)CCN(C(=O)NCc3ccccc3)[C@H]2CN1Cc1cccc2ccccc12	43.5	> 100 µM	3.61	20.1 µM	3.81	> 100 µM	3.22	17.6 µM	0.901	12 µM	2.85	19.3 µM	0.926	7.4 µM	2.34	15.4 µM	14.2	> 80.1 µM	0.868	> 100 µM
Nc1cc(C(F)(F)F)c(-c2nc(N3CCOCC3)nc(N3CCOCC3)n2)cn1		> 23.2 µM	0.401	14.1 µM	0.31	5.02 µM	0.226	1.75 µM	0.624	> 83.9 µM	0.214	36 µM	0.539	3.54 µM	0.0328	0.347 µM	0.502	> 71.7 µM	2.11	44.5 µM
CC1=C(C(=O)Nc2ccc3[nH]ncc3c2)C(c2ccc(F)cc2)N=C(c2ccc(C(F)(F)F)nc2)N1 (centres undefined)	18.5	> 25 µM	10.4	> 25 µM	6.19	> 25 µM	9.81	> 25 µM	7.06	> 25 µM	11.5	> 25 µM	7.61	> 25 µM	> 20	> 25 µM	11.9	> 25 µM	> 23.6	> 25 µM
COc1cc(/C=C/c2cc(/C=C/c3ccc(O)c(OC)c3)n(C(=O)Nc3ccc(C)cc3)n2)ccc1O	0.429	> 100 µM	0.287	1.05 µM	0.992	5.02 µM	1.71	6.34 µM	0.235	0.909 µM	1.93	5.19 µM	0.442	2.47 µM	1.14	3.33 µM	0.311	6.95 µM	0.873	9.11 µM
CN1CCN(C(=O)/C=C/c2ccc([N+](=O)[O-])o2)CC1	14.9	52.5 µM	3.11	11.7 µM	23.2	87.6 µM	27.9	> 100 µM	2.72	5.74 µM	9.81	37 µM	15	45 µM	18.1	45.4 µM	10.6	34.3 µM	38.1	> 100 µM
O=C(CC1(O)C(=O)Nc2c(Cl)cc(Cl)cc21)c1cccc([N+](=O)[O-])c1 (centres undefined)		> 100 µM		> 58 µM		> 100 µM		> 100 µM		> 100 µM		> 100 µM		55.4 µM		> 100 µM		> 93.2 µM		> 100 µM

From PubChem BioAssay (NCI)
